Laboratory results as given in US10533989B2, “Metabolomics in pneumonia and sepsis” (University of Pittsburgh—Of the Commonwealth System of …, priority 2012, dated 2020).

System: differentiated Thp1 monocytes
Experiment: In-vitro monocyte stimulation, TNFα and IL1β in supernatant by ELISA
Type: cell-based, human
Conditions: for IL-1β in supernatant vs PBS control / TNFα in supernatant vs PBS control: differentiated Thp1 monocytes, 16 h, beta-pseudouridine 10 mM, allantoin 0.3 mg/mL
From the text: Among significant metabolites (p<0.05, q<0.1) in our agnostic approach, five nucleic acid metabolites (e.g., beta-pseudouridine, 1-methyladenosine, N-2-methylguanosine, N-6-carbamoylthreonyladenosine, and allantoin) were identified for in vitro monocyte stimulation experiments. See, Table 2. These nucleic acid metabolites may function as damage-associated molecular patterns, and stimulate TNFα and IL1β similar to HMGB-1 and LPS. Bleiblo et al. (2012) “The role of immunostimulatory nucleic acids in septic shock” Int J Clin Exp Med 5:1-23
THP-1 cells (American Type Cell Collection, Manassas, Va., USA) were cultured in suspension in RPMI1640 media (Gibco, Grand Island, N.Y., USA) supplemented with 10% fetal bovine serum, 2 mM L-glutamine, 100 U/mL penicillin, 100 […], and 100 µM sodium pyruvate (all from Gibco). To differentiate the monocytes, 0.33×10^6 cells/mL were suspended in media and treated with 5 ng/mL PMA and then plated. After 48 h, adhered cells were washed three times in PBS and then treated for 16 h with compounds of interest at concentrations described. All compounds were dissolved in endotoxin-free water.
Endotoxin was measured at 61.5-153.8 pg per 250 µL treatment of 10 mM dose beta-pseudouridine, compared to 4,000 pg/mL in LPS-positive control. After 16 h media was collected and TNFα and IL1β levels determined by ELISA (R&D Systems, Minneapolis, Minn., USA) according to manufacturer's instructions. Experiments were repeated after treatment with viral inhibitory peptide of TLR4 (VIPER) and polymyxin B (PMB).

SMILES | Cytokine (TNFα) stimulation, concentration dependence (beta-pseudouridine 0.0001-10 mM, 16 h (FIG. 5C)) | Cytokine (TNFα) levels in the presence of TLR4-receptor inhibitor VIPER (beta-pseudouridine 10 mM with VIPER (TLR4-antagonist), 16 h (FIG. 5D)) | Cytokine (TNFα) levels in the presence of polymyxin B (beta-pseudouridine 10 mM with polymyxin B (PMB; 10 μM), 16 h (FIG. 5D)) | IL-1β in supernatant vs PBS control | TNFα in supernatant vs PBS control | IL-1β in supernatant vs PBS control (listed as beta-pseudouridine) | TNFα in supernatant vs PBS control (listed as beta-pseudouridine)
O=c1[nH]cc([C@@H]2O[C@H](CO)[C@@H](O)[C@H]2O)c(=O)[nH]1 [pseudouridine] | concentration-dependent | significantly abrogated | remained significantly elevated | increased | increased | stimulated significant release | stimulated significant release
NC(=O)NC1NC(=O)NC1=O (centres unmarked) [allantoin] | – | – | – | significantly increased | – | – | –
